According to patent US9611281B2, “BODIPY derivatives and methods of synthesis and use thereof” (The Board of Regents of the University of Oklahoma, priority 2013, dated 2017):

Legend:
[1] = Optical properties (absorption, emission, extinction coefficient) of BDP635 and derivative SBDPiRs; type: physicochemical
[2] = Real time whole body imaging of SBDPiR690 clearance and biodistribution; design: species or system mice; conditions: mouse, in vivo
Procedure: The inherent fluorescent properties of SBDPiR690 enabled its use in real time whole body imaging to evaluate the clearance and biodistribution of the drug in organs, making it an applicable theranostic agent. The drug clears from organs and tissue by 24 hours, reducing the occurrence of skin photo-toxicity, which is a major problem among photosensitizers. […] These findings show the effectiveness of SBDPiR690 as a photosensitizer for use in PDT in clinical setting.

colon cancer tumors = assay: H&E histology of tumors after SBDPiR690 PDT; type: in vivo, Balb/c mice; conditions: 1 day post treatment
Excerpt: To access the effect of SBDPiR690 on the tumor regions, tumor samples were collected from SBDPiR690 treated and control mice 1 day post treatment. The samples were fixed, embedded, sectioned, and stained using hematoxylin and eosin.

colon-26 tumor model = assay: In vivo PDT response following SBDPiR690 treatment; design: species or system Balb/c mice
Procedure: 25 animals were divided into 4 groups: control, dark control (SBDPiR690 only), light control (light only), and SBDPiR690-with light exposure (PDT). SBDPiR690 was intravenously injected into mice with colon-26 tumor model, followed by light illumination after 15 minutes postinjection using a light dose of 100 mW/cm^2 (FIGS. 28-29). Mice body weight and tumor response at high light doses (˜500 J cm^−2) were used for initial toxicity profiles.

[3] = Drug biodistribution of SBDPiR715; type: in vivo, Balb/c mice; conditions: 5 μmol/kg i.p., 24 hours postinjection
Procedure: Mice were injected via i.p. with SBDPiR715 (5 μmol/kg/3.7 mg/kg). After 24 hours postinjection, the mice (n=3) were euthanized by CO2 inhalation. Tissues were excised from major organs and tumor. Collected tissues were rinsed with PBS and blotted dry. One hundred milligram of excised tissue was homogenized with CHCl3 (1 ml). The homogenates were centrifuged at 5160 g for 20 minutes, and the supernatant was used for fluorescence measurement (excitation at 710 nm and emission at 754 nm). The amount of compound in each sample was evaluated relative to the standard curve and expressed in “mg/g of tissue” unit.

[4] = Singlet oxygen generation, indirect method of DPBF photooxidation; conditions: DPBF photooxidation monitored at 410 nm
Procedure: Singlet oxygen generation and photostability: A singlet oxygen generation experiment on compound 53 using the indirect method of DPBF photooxidation was performed. There were strong similarities of the behavior of 53 towards DPBF with SBDPiR715. […] The photooxidation of DPBF was monitored by UV-vis spectrophotometer at 410 nm. […] Additionally, less than 30% of 53 photobleached under the harsh light illumination condition over a period of an hour, which is a strong evidence for photostability (FIG. 21).

colon-26 tumors = assay: In vivo SBDPiR715-mediated PDT
Procedure: PS: To obtain an injection solution of SBDPiR715, the emulsifier Tween 80 was used. Tween 80 is a nonionic surfactant, frequently used in vivo as a solubilizing agent for highly lipophilic therapeutics. The formulation procedure required dissolving the PS in a minimal amount of Tween 80 (100 μl). The paste was allowed to stand overnight. 5% Dextrose in phosphate-buffered saline (PBS) solution was added, and the solution was sonicated for 1 hour. The resulting green solution was filtered through a 0.2 μm membrane filter. To ensure the accuracy of the concentration, which might vary due to partial solubility of the PS, the exact concentration was confirmed by UV-visible spectral analysis of the solutions prior to dosing.
Cells and Animal Models: Colon-26 mouse carcinoma cells were obtained from the American Type Culture Collection (ATCC) and cultured in minimum essential medium supplemented with 10% (v/v) fetal calf serum (FCS), 50 U ml^−1 penicillin, 50 μg ml^−1 streptomycin, and 1% (v/v) L-glutamine. The cells were maintained in 5% CO2 (v/v) and 21% O2 (v/v) at 37° C. All animal experiments were approved by IACUC of the University of Oklahoma Health Sciences Center. Female BALB/c mice were received from Charles River at 6-8 weeks old. Balb/c mice were shaved on the upper back and depilated with Nair (Carter-Wallace Inc., New York, N.Y., USA). Mice were anesthetized with an i.p. injection of ketamine/xylazine cocktail (90 mg kg^−1 ketamine and 10 mg kg xylazine). One million colon-26 cells were injected subcutaneously in one dorsal neck area suspended in […] PBS. Tumors grew predictably in all the mice and reached a size of 4- to 6-mm diameter in 5-7 days, or 8-11 mm in 14-16 days after injection, at which time they were used for PDT.
SBDPiR715 in 1% Tween 80-5% Dextrose solvent was injected i.p. at a dose of 3 μmol/kg (2.2 mg/kg) and 5 μmol/kg (3.7 mg/kg) in 0.2 ml solution. Tumors were irradiated 6 hours, 24 hours, or 32 hours after the injection using a Lumacare LC-122M with a fiber-optic light delivery system (Lumacare, Newport Beach, Calif., USA) emitting light at 700 nm (±40 nm). […] No evident temperature increase was detected at the site of irradiation. Mice were anesthetized as described above, and the tumor-bearing limb was positioned under the spot. Total dose of 200-300 mW/cm^2 was delivered for 30 minutes (360-540 J cm^−2). Mice bearing colon-26 tumors were also irradiated without having received injection of SBDPiR715. Another group of animals was treated with SBDPiR715 i.p. without irradiation. After irradiation, mice were allowed to recover in an animal cotton blanket until they resumed normal activity. A positive tumor response was ascribed to tumors that appeared flat blackened or reddened scarp and necrotic tissue within a few days after PDT. Animals were considered cured after complete tumor regression and the absence of a palpable tumor.

**Q.** For `F[B-]1(F)n2c(cc3sc(-c4ccccc4)cc32)C(C(F)(F)F)=C2C=c3sc(-c4ccccc4)cc3=[N+]21` [SBDPiR690, 2,8-Di(phenyl)-1-trifluoromethyl-dithieno[2,3-b]-[3,2-g]-5,5-difluoro-5-bora-3a,4a-diaza-s-indacene], which ε [1] is on record?
**A.** 120 000 M^−1 cm^−1

**Q.** And the λabs [1]?
**A.** 688 nm

**Q.** And the λflu [1]?
**A.** 700 nm

**Q.** What about the “clearance from organs and tissue” value [2] of the same molecule?
**A.** ≤ 24 h

**Q.** What about the “tissue morphology (H&E)” value (colon cancer tumors) of the same molecule?
**A.** necrosis associated with the treated mice

**Q.** And the palpable tumor (colon-26 tumor model; 60 days post-treatment)?
**A.** no palpable tumor observed

**Q.** What about the tumor volume (colon-26 tumor model; SBDPiR690-induced PDT) of the same molecule?
**A.** elimination of tumors

**Q.** And the tumor necrosis (colon-26 tumor model; after 24-72 h, light fluence 150 J cm^−2)?
**A.** Mass necrosis localized at the tumor region

**Q.** What about the survival (colon-26 tumor model; after 60 days, SBDPiR690-induced PDT) of the same molecule?
**A.** 100%

**Q.** And the oedema and inflammation (colon-26 tumor model; after PDT)?
**A.** oedema and inflammation was observable after 24 hours, but healed after a few days

**Q.** What about the body weight (colon-26 tumor model; high light doses (~500 J cm^−2)) of the same molecule?
**A.** fairly constant

**Q.** For `COc1ccc(-c2sc3c(c2Br)=[N+]2C(=C(C(F)(F)F)c4cc5sc(-c6ccc(OC)cc6)c(Br)c5n4[B-]2(F)F)C=3)cc1` [SBDPiR715], which organ biodistribution [3] is on record?
**A.** a higher accumulation of SBDPiR715 was observed in the liver and spleen

**Q.** And the singlet oxygen generation [4]?
**A.** effective singlet oxygen generation

**Q.** What about the extent of necrosis (colon-26 tumors; 6 and 24 hour drug-light interval) of the same molecule?
**A.** necrosis spread to neighboring skin regions

**Q.** What about the extent of necrosis (colon-26 tumors; 32 hour drug-light interval) of the same molecule?
**A.** confinement of necrosis to the tumor region

**Q.** And the tumor healing time (colon-26 tumors; after PDT, with remodeling of damaged tissue)?
**A.** ~30 days

**Q.** What about the “tumor response to PDT” value (colon-26 tumors; all treatment groups (6, 24, 32 h drug-light interval), monitored for 90 days) of the same molecule?
**A.** complete tumor ablation

**Q.** And the “weight loss / visual signs of toxicity” value (colon-26 tumors; treatment dose 5 μmol/kg (3.7 mg/kg) i.p.)?
**A.** No weight loss or other visual signs of toxicity

**Q.** What about the “onset of tumor necrosis after PDT” value (colon-26 tumors; treatment groups) of the same molecule?
**A.** mass necrosis and eschar within a day
